We go through two substances from patent US9359645B2, “Methods for detecting diabetic nephropathy comprising measuring the expression of Smad1” (HUBIT GENOMIX INC., priority 2003, dated 2016).

This data set concerns Smad1. In words: Smad1 morpholino antisense oligonucleotide in AGEs-treated mesangial cells (Smad1 and Col4 expression). The following applies: for AGEs-mediated overproduction (overexpression) of Col4: mesangial cells treated with AGEs; for AGEs-mediated induction of Smad1: mesangial cells, 72 hr AGEs then 16 hr with oligo. In kind it is cell-based, mouse. On the procedure: A glomerular mesangial cell strain was established from glomeruli isolated from normal, 4 week-old mice (C57BL/6JxSJL/J), and was identified according to the method previously described (S1). The mesangial cells were cultured in B medium (a 3:1 mixture of minimal essential medium/F12 modified with trace elements) supplemented with 1 mM glutamine, 100 units/ml penicillin, […] streptomycin and 20% fetal calf serum. The cultured cells fulfilled the criteria generally accepted for glomerular mesangial cells (S2). AGEs or BSA exposure was carried out as described previously (S3).
Mesangial cells were cultured in the presence of AGEs or BSA (as control) for 72 hours. Cells were harvested in sample buffer, resolved by SDS-polyacrylamide gel electrophoresis and transferred to nitro-cellulose membrane and subjected to Western blot using a 1:500 dilution of anti-Smad1 antibody and anti-pSmad1 antibody (Santa Cruz Biotechnology), followed by detection using an enhanced chemiluminescence detection system (Invitrogen, Carlsbad, Calif.).
Cultured cells were fixed in 4% paraformaldehyde. The following antibodies were used: anti-Smad1 antibody, 1:100 (Santa Cruz Biotechnology); anti-pSmad1 antibody, 1:100 (Calbiochem). An appropriate fluoresceine isothiocyanate-conjugated secondary antibody was used for visualization and imaging was done using a laser microscope and a fluorescent microscope (Olympus, Tokyo, Japan).
The antisense oligonucleotide used was a 25-nucleotide morpholino oligo (Genetools LLC, Philomath, Oreg.). The sequence is 5′-[…]-3′ (SEQ ID NO: 13). As a control, an oligo with the base composition 5′-CAtGCTcGTCACATTCAaAGCcGCT-3′ (SEQ ID NO: 18) was used. In vitro RNA transcription was performed as previously described (S7).

Regarding “Smad1 mismatch oligo: control oligo 5′-CAtGCTcGTCACATTCAaAGCcGCT-3′ (SEQ ID NO: 18) (CATGCTCGTCACATTCAAAGCCGCT; listed as DNA, chemistry not given here)”, the “AGEs-mediated overproduction (overexpression) of Col4” value is listed as “no effect” and the “AGEs-mediated induction of Smad1” value is recorded as “not”.

As for “antisense oligo to Smad1: 25-nucleotide morpholino oligo, 5′-CAAGCTGGTCACATTCATAGCGGCT-3′ (SEQ ID NO: 13) (all phosphorodiamidate morpholino (PMO))”, the “AGEs-mediated overproduction (overexpression) of Col4” value was “remarkably attenuates” and the “AGEs-mediated induction of Smad1” value is on record as “completely abolished”.
